According to US20190175526A1, “METHODS FOR TREATING CANCER” (Macau University of Science and Technology, priority 2017, published 2019):

Columns and labels:
[1] = tested on: H460 cells; assay: MTT cell viability assay, H460 cells; type: cell-based; settings: Homo sapiens, NCI-H460, cell line H460, 72 hours
Method: (§1) Cell lines A549 and H460 were purchased from ATCC and cultivated in RPMI 1640 medium supplemented with 10% FBS (Gibco, Big Cabin, Okla., Me., USA), 1% penicillin-streptomycin solution and maintained at 37° C. in a CO2 incubator with 5% CO2. Compound 3039-0164 was dissolved in DMSO and stored at −40° C. Cells were seeded on a 96-well microplate with 3,000 cells/well, cultured overnight for cell adhesion, and treated with DMSO or various concentrations of compound 3039-0164 for 72 hours. Then, each well was added with 10 μL MTT (5 mg/mL) and incubated for 4 hours at […], followed by adding 100 μL acidic isopropanol (10% SDS and 0.01 mol/L HCl). Finally, an absorbance at 570 nm was measured by a microplate reader (Tecan, Morrisville, N.C., USA). Cell viability was calculated relative to untreated controls, with results based on at least three independent experiments. Two human non-small cell lung cancer (NSCLC) cell lines, A549 and H460, were treated with an increasing concentration (0, 2.5, 5.0, 7.5 and 10.0 μM) of compound 3039-0164 for 72 hours, and then cell viability was determined by MTT assay. As shown in FIG. 2a and FIG. 2b, the cell viability of A549 and H460 were both decreased by compound 3039-0164 in a dose-dependent manner.

[2] = target: PRMT5 (Homo sapiens, UniProt O14744); assay: PRMT5 enzymatic assay (AlphaLISA); type: biochemical; settings: 60 minutes at room temperature, read-out: IC50, PRMT5 enzyme activity
PRMT5, sequence (O14744 2-637 limits assumed): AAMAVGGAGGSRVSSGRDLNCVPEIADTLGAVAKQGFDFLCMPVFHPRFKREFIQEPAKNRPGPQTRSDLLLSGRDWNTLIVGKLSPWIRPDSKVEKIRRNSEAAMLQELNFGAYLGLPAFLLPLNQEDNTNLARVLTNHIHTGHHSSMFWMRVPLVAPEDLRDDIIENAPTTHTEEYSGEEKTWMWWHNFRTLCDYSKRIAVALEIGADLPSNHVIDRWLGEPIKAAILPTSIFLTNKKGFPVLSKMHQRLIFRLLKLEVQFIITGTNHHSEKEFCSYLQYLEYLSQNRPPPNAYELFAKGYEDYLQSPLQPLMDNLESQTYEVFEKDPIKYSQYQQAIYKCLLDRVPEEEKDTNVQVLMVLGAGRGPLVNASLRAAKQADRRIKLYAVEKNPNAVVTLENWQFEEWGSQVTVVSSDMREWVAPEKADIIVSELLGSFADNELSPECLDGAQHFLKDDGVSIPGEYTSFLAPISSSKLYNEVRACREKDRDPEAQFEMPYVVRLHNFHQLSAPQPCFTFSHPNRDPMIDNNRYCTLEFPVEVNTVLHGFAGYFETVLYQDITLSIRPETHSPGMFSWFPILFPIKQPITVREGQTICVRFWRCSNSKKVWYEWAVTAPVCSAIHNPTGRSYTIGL
PRMT5, sequence (Q9BQA1 2-342 partner limits assumed): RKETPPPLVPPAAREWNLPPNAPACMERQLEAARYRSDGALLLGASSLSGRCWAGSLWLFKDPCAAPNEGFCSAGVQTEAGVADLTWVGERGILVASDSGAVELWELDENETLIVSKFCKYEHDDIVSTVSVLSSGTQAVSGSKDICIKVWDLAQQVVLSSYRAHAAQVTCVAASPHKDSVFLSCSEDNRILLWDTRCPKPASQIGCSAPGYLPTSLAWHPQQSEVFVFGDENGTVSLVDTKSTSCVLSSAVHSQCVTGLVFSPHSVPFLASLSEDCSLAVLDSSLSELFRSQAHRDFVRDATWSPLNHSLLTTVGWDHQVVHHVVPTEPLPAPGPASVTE
Method: PRMT5 enzymatic assay was carried out by Shanghai ChemPartner Co. (998 Halei Road, Pudong New Area, Shanghai, 201203, China). To measure IC50 values, 10 concentrations of compound 3039-0164 were tested. PRMT5 was purchased from BPS bioscience (Cat. No. 51045), and SAM/SAH were purchased from Sigma. Inc (Cat. No. A7007-100MG and No. A9384-25MG). Compound 3039-0164 was prepared as 10 mM stock in DMSO and diluted to final concentration in DMSO. PRMT5 and substrates were incubated with indicated concentrations of compounds in a 384-well plate for 60 minutes at room temperature. Then, acceptor and donor solutions were added to label the residual substrates of PRMT5. The labeling process lasted for 60 minutes at room temperature, followed by reading endpoint with EnSpire Plate Reader with Alpha mode (PerkinElmer). To investigate the influence of compound 3039-0164 on enzymatic activity and its “on-target” effect, AlphaLISA assay was carried out.

[3] = tested on: A549 cells; assay: MTT cell viability assay, A549 cells; type: cell-based; settings: Homo sapiens, cell line A459 (A549), 72 hours
Method: as §1

O=C1c2ccccc2C(=O)c2c(NCCCN(CCO)CCO)cccc21 [compound 3039-0164]
IC50 [1]: 8.64 ± 1.46 µM | IC50 [2]: 63.2 ± 4.5 µM | IC50 [3]: 7.79 ± 1.8 µM
